Laboratory results: article PMC9537541, “Synthesis and anticancer activity of new benzensulfonamides incorporating s-triazines as cyclic linkers for inhibition of carbonic anhydrase IX” (Scientific Reports, 2022)

How the values were obtained:
leukemia (CCRF-CM) = experiment: anti-proliferative activity under hypoxic condition (MTT), CCRF-CM; type: cell-based; conditions: hypoxic conditions (1%O2, 5% CO2 and 94% N2), mean ± S.D. of three experiments
Procedure: All cells were incubated in hypoxic atmosphere (1% O2, 5% CO2, and 94%N2) and maintained at 37 °C. All procedures to determine compounds cytotoxicity were accomplished using MTT assay as reported,[59],[60].

Leukemia (SR) = experiment: NCI single dose SRB screen, SR; type: cell-based; conditions: 48 h, 10^−5 M single dose, read-out: GI% Leukemia (SR)
Procedure: (§1) Target compounds in series (A) and (B), were submitted to the National Cancer Institute (NCI) Developmental Therapeutic Program (www.dtp.nci.nih.gov), where they have been assessed, in vitro for their anticancer activity. Two series (A) and (B), were screened in a single dose (10 µM) versus full panel composed of 60 cancer cell lines, in accordance with protocol of drug evaluation branch, NCI, Bethesda. Sulforhodamine B (SRB) colorimetric assay was used to determine cell growth and viability,[40].
(§2) Protocol of Drug Evaluation Branch, NCI, Bethesda, was adopted in the antitumor assay. Assessment of cell growth and viability was carried out utilizing SRB assay and 48 h drug exposure protocol as previously reported,[40].

CNS cancer (SNB-75) = experiment: NCI single dose SRB screen, SNB-75; type: cell-based; conditions: Homo sapiens, SNB-75, 48 h, 10^−5 M single dose, read-out: GI% CNS cancer (SNB-75)
Procedure: as §1, §2

hCA IX = target: T1, hCA IX (Homo sapiens, UniProt Q16790); experiment: stopped-flow CO2 hydrase assay, hCA IX; type: biochemical; conditions: for Ki: stopped flow technique, mean from 3 different assays
T1 construct: made in house
Procedure: (§3) Target compounds of series (A) and (B) were screened as inhibitors concerning the physiologically relevant hCAs; cytosolic isoforms (hCA I and II) in addition to the transmembrane tumor related isoforms (hCA IX and XII) via a stopped-flow assay of carbonic anhydrase catalyzed CO2 hydration. Acetazolamide (AAZ), CA I drug, was also incorporated in the assays as a standard drug. […] Four CA isoforms inhibition activity was measured by assaying CA catalyzed CO2 hydration via an applied photophysics stopped-flow instrument. PRISM 3 and the Cheng-prusoff equation were used to determine the inhibition constant by non-linear least square methods as reported, and represent the mean from three different determination at least. All tested carbonic anhydrase isoforms were recombinant proteins prepared in lab as described earlier,[57].

hCA I = target: T2, hCA I (Homo sapiens, UniProt P00915); experiment: stopped-flow CO2 hydrase assay, hCA I; type: biochemical; conditions: stopped flow technique, mean from 3 different assays
T2 construct: made in house
Procedure: as §3

hCA II = target: T3, hCA II (Homo sapiens, UniProt P00918); experiment: stopped-flow CO2 hydrase assay, hCA II; type: biochemical; conditions: stopped flow technique, mean from 3 different assays
T3 construct: made in house
Procedure: as §3

[1] = test system: Breast cancer (MDA-MB-468); experiment: NCI single dose SRB screen, MDA-MB-468; type: cell-based; conditions: Homo sapiens, MDA-MB-468, 48 h, 10^−5 M single dose, 48 h, SRB; read-out: GI% Breast cancer (MDA-MB-468)
Procedure: as §1, §2

Renal cancer (UO-31) = experiment: NCI single dose SRB screen, UO-31; type: cell-based; conditions: Homo sapiens, UO-31, 48 h, 10^−5 M single dose, read-out: GI% Renal cancer (UO-31)
Procedure: as §1, §2

hCA XII = target: T4, hCA XII (Homo sapiens, UniProt O43570); experiment: stopped-flow CO2 hydrase assay, hCA XII; type: biochemical; conditions: for Ki: stopped flow technique, mean from 3 different assays
T4 construct: made in house
Procedure: as §3

T4 sequence (O43570 25-354): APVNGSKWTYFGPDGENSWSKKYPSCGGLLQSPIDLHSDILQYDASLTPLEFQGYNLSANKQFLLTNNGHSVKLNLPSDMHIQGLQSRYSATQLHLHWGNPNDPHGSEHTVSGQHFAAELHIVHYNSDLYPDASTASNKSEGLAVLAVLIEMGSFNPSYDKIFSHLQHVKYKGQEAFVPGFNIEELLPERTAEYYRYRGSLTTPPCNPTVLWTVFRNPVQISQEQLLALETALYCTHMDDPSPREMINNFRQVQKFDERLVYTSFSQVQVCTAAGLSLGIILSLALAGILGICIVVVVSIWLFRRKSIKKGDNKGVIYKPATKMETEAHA
T2 sequence (P00915 whole entry): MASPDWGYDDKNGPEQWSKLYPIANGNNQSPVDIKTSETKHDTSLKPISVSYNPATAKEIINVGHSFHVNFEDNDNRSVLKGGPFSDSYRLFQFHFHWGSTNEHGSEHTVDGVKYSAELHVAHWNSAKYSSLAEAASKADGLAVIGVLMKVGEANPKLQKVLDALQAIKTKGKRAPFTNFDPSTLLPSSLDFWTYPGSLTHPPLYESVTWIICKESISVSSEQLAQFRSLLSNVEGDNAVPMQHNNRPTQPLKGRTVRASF

Selectivity index (SI) I/IX (hCA IX; hCA IX over off-target hCA I)	Selectivity index (SI) II/IX (hCA IX; hCA IX over off-target hCA II)	Ki (hCA IX)	Ki (hCA I)	melting point	Ki (hCA II)	Selectivity index (SI) I/XII (hCA XII; hCA XII over off-target hCA I)	Selectivity index (SI) II/XII (hCA XII; hCA XII over off-target hCA II)	Ki (hCA XII)	Compound	IC50 (leukemia (CCRF-CM))	inhibition at 10 µM (Leukemia (SR))	inhibition at 10 µM (CNS cancer (SNB-75))	inhibition at 10 µM [1]	inhibition at 10 µM (Renal cancer (UO-31))
–	–	–	–	–	–	–	–	–	CN[C@@H]1C[C@H]2O[C@@](C)([C@@H]1OC)n1c3ccccc3c3c4c(c5c6ccccc6n2c5c31)C(=O)NC4 [Staurosporine, reference compound]	2.17 ± 0.11 µM	–	–	–	–
0.2	1.4	2.28 µM	0.354 µM	270 to 272 °C	3.16 µM	0.1	0.6	5.43 µM	NC1=NC2(CCCCC2)NC(Nc2ccc(S(N)(=O)=O)cc2)=N1 [Compound 8b, 4-({4-Amino-1,3,5-triazaspiro[5.5]undeca-2,4-dien-2-yl}amino)benzene-1-sulfonamide]	–	15%	21%	11%	≤ 10%
–	–	> 10 µM	> 10 µM	209 to 211 °C	> 10 µM	–	–	> 10 µM	CC1(C)N=C(N)N=C(N)N1c1ccc(S(=O)(=O)Nc2ccccn2)cc1.Cl [Compound 5b, 4-(4,6-Diamino-2,2-dimethyl-1,2-dihydro-1,3,5-triazin-1-yl)-N-(pyridin-2-yl)benzene-1-sulfonamide HCl]	–	≤ 10%	28%	≤ 10%	11%
